The values below come from patent US11926812B2, “Pressure-driven, adjustable throughput fluidics for tissue and cell perifusions” (EnTox Sciences, Inc., priority 2017, dated 2024).

The assay concerns liver slices. Put plainly: Effect of acetaminophen on liver oxygen consumption rate (OCR) in microperifusion prototype. It is filed as cell-based, rat. The following applies: two 1 mg liver slices per channel, after about three hours baseline, triplicate channels.

Regarding `CC(=O)Nc1ccc(O)cc1` [acetaminophen], the OCR lowered runs as follows: (6 mM acetaminophen) 40%; (15 mM acetaminophen) 60%.
